Assay results reported in EP1984353B1, “AURORA KINASE MODULATORS AND METHOD OF USE” (Amgen, Inc, priority 2006, dated 2007).
Read-outs that look alike come from different tables or passages of the source.

What was measured:
AuroraA-TPX2 = molecular target: T1, AuroraA-TPX2 (Homo sapiens, UniProt O14965); assay: AuroraA-TPX2 Homogeneous Time Resolved Fluorescent (HTRF) kinase assay; format: biochemical; conditions: average, read-out: AurA/TP X2_ IC50_IP (Avg)
T1 construct: 20 µL of AuroraA-TPX2 KD GST; GST
T1 sequence (O14965 133-383 limits assumed): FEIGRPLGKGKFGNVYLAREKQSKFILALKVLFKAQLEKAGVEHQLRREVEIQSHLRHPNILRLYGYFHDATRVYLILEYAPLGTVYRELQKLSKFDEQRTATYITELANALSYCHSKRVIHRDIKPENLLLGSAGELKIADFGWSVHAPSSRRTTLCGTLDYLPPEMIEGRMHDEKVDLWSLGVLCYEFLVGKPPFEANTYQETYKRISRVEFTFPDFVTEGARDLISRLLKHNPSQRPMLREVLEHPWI
T1 sequence (Q9ULW0 1-43 partner limits assumed): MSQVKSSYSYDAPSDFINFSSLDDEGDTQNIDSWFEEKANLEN
Outline: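 Aurora-A/TPX2 phosphorylates biotinylated PLK peptide (about 1 µM) with ATP for about 120 min in 60 mM HEPES pH 7.5, 10 mM MgCl2, 2 mM DTT. EDTA quench, overnight equilibration with Eu-anti-phosphoPLK antibody and SA-APC; HTRF read at 615/655 nm after 320 nm excitation.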

AuroraB = molecular target: T2, AuroraB (Homo sapiens, UniProt Q96GD4); assay: AuroraB Homogeneous Time Resolved Fluorescent (HTRF) kinase assay; format: biochemical; conditions: average, read-out: AurB_ _IC50_IP (Avg)
T2 construct: 20 µL of AuroraB FL His; His
Outline: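 Full-length His-tagged AuroraB (400 pM) phosphorylates 0.1 µM biotinylated Histone H3 with 23 µM ATP (Km(app)) in HEPES pH 7.5 with Mg/Mn, about 90 min. EDTA-quenched; Eu-anti-phosphoHistoneH3 and SA-APC HTRF, 655/615 nm ratio as phosphorylation.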

[1] = given as numbers, unit inferred

T2 sequence (Q96GD4 whole entry): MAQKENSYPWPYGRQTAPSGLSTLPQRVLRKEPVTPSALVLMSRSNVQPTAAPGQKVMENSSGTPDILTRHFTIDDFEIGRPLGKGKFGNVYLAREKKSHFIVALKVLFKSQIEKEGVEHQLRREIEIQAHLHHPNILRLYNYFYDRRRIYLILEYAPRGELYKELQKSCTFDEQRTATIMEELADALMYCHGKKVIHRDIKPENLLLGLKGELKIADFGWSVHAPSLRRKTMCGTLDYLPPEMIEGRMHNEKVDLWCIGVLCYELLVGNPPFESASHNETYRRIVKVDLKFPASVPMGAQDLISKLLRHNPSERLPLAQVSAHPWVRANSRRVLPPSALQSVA

Compound | IC50 (AuroraA-TPX2; given as class symbols) | IC50 (AuroraB; given as class symbols) | IC50 (AuroraA-TPX2; [1]) | IC50 (AuroraB; [1])
CN1CCN(CCCNc2nccc(-c3cccnc3Oc3ccc(Nc4nnc(-c5ccccc5)c5ccccc45)cn3)n2)CC1 [compound 389, N-(6-((3-(2-((3-(4-methyl-1-piperazinyl)propyl)amino)-4-pyrimidinyl)-2-pyridinyl)oxy)-3-pyridinyl)-4-phenyl-1-phthalazinamine] | ≤ 100 nM | ≤ 100 nM | – | –
c1ccc(-c2nnc(Nc3ccc(Oc4ncccc4-c4ccnc(NCCCN5CCNCC5)n4)nc3)c3ccccc23)cc1 [compound 390, 4-phenyl-N-(6-((3-(2-((3-(1-piperazinyl)propyl)amino)-4-pyrimidinyl)-2-pyridinyl)oxy)-3-pyridinyl)-1-phthalazinamine] | ≤ 100 nM | ≤ 100 nM | – | –
Nc1nccc(-c2cccnc2Oc2ccc(Nc3nnc(-c4ccccc4OP(=O)(O)O)c4ccccc34)cn2)n1 [compound 391, 2-(4-((6-((3-(2-amino-4-pyrimidinyl)-2-pyridinyl)oxy)-3-pyridinyl)amino)-1-phthalazinyl)phenyl dihydrogen phosphate] | – | – | 1600 nM | 641 nM
Nc1nccc(-c2cccnc2Oc2ccc(Nc3nnc(-c4cccc(OP(=O)(O)O)c4)c4ccccc34)cn2)n1 [compound 392, 3-(4-((6-((3-(2-amino-4-pyrimidinyl)-2-pyridinyl)oxy)-3-pyridinyl)amino)-1-phthalazinyl)phenyl dihydrogen phosphate] | 500 to 2500 nM | 500 to 2500 nM | – | –
Cc1ccc(-c2nnc(Nc3ccc(Oc4ncccc4-c4ccnc(N)n4)cc3)c3ccccc23)nc1 [compound 396, N-(4-((3-(2-amino-4-pyrimidinyl)-2-pyridinyl)oxy)phenyl)-4-(5-methyl-2-pyridinyl)-1-phthalazinamine] | – | – | 4.7 nM | 0.8 nM
Fc1cnc(NCCCN2CCNCC2)nc1-c1cccnc1Oc1ccc(Nc2nnc(-c3ccccc3)c3ccccc23)cc1 [compound 400, N-(4-((3-(5-fluoro-2-((3-(1-piperazinyl)propyl)amino)-4-pyrimidinyl)-2-pyridinyl)oxy)phenyl)-4-phenyl-1-phthalazinamine] | 100 to 500 nM | ≤ 100 nM | – | –

Continued, values first:

IC50 (AuroraA-TPX2; given as class symbols) | IC50 (AuroraB; given as class symbols) | IC50 (AuroraA-TPX2; [1]) | IC50 (AuroraB; [1]) | Compound
500 to 2500 nM | 100 to 500 nM | – | – | Nc1nccc(-c2cccnc2Oc2ccc(Nc3nnc(N4CCNCC4)c4ccccc34)cc2)n1 [compound 393, N-(4-((3-(2-amino-4-pyrimidinyl)-2-pyridinyl)oxy)phenyl)-4-(1-piperazinyl)-1-phthalazinamine]
≤ 100 nM | ≤ 100 nM | – | – | Nc1nccc(-c2cccnc2Oc2ccc(Nc3nnc(N4CCN5CCCC5C4)c4ccccc34)cc2)n1 (stereo not drawn) [compound 394, N-(4-((3-(2-amino-4-pyrimidinyl)-2-pyridinyl)oxy)phenyl)-4-(hexahydropyrrolo[1,2-a]pyrazin-2(1H)-yl)-1-phthalazinamine]
≤ 100 nM | ≤ 100 nM | – | – | CC1CN(c2nnc(Nc3ccc(Oc4ncccc4-c4ccnc(N)n4)cc3)c3ccccc23)CCN1C (stereo not drawn) [compound 395, N-(4-((3-(2-amino-4-pyrimidinyl)-2-pyridinyl)oxy)phenyl)-4-(3,4-dimethyl-1-piperazinyl)-1-phthalazinamine]
≤ 100 nM | ≤ 100 nM | – | – | Nc1nccc(-c2cccnc2Oc2ccc(Nc3nnc(N4CCN5CCCC5C4)c4ccccc34)cn2)n1 (stereo not drawn) [compound 397, N-(6-((3-(2-amino-4-pyrimidinyl)-2-pyridinyl)oxy)-3-pyridinyl)-4-(hexahydropyrrolo[1,2-a]pyrazin-2(1H)-yl)-1-phthalazinamine]
500 to 2500 nM | 100 to 500 nM | – | – | C[C@@H]1CN(c2nnc(Nc3ccc(Oc4ncccc4-c4ccnc(N)n4)cc3)c3ccccc23)CCN1 [compound 399, N-(4-((3-(2-amino-4-pyrimidinyl)-2-pyridinyl)oxy)phenyl)-4-((3R)-3-methyl-1-piperazinyl)-1-phthalazinamine]
≤ 100 nM | ≤ 100 nM | – | – | Nc1nccc(-c2cccnc2Oc2ccc(Nc3nnc(N4CCN5CCC[C@H]5C4)c4ccccc34)cc2)n1 [compound 401, N-(4-((3-(2-amino-4-pyrimidinyl)-2-pyridinyl)oxy)phenyl)-4-((8aS)-hexahydropyrrolo[1,2-a]pyrazin-2(1H)-yl)-1-phthalazinamine]
